Data: article PMC6735221, “A phase Ib dose-finding, pharmacokinetic study of the focal adhesion kinase inhibitor GSK2256098 and trametinib in patients with advanced solid tumours” (British Journal of Cancer, 2019)
Like-named read-outs stand apart in the source and are kept apart here.

What was measured:
[1] = system: human carboxylesterases (eg, hCES1b, hCES1c, and hCES2); design: method as in GSK data on file; conditions: in vitro investigation; ref GSK data on file; cited from earlier work
[2] = GSK2256098 pharmacokinetics, whole blood, Day 15; type: in vivo, human; conditions: for Cmax: read-out: Cmax, Geometric mean (%CV); for Tmax: read-out: tmax, Median (range)
Experimental: (§1) Approximately 15 μL blood was then transferred from the “end-to-end” EDTA capillary tube onto the Whatman FTA DBS card.

[3] = Adverse events (CTCAE v4.0) in patients; conditions: diarrhoea, lower respiratory tract infection, nausea, vomiting
Experimental: (§2) AEs were assessed throughout the study using the National Cancer Institute Common Terminology Criteria for Adverse Events v4.0 guidelines.[13]
(§3) Haematology and clinical chemistry laboratory tests were performed at baseline, Days 1, 8, 15, 22, 29, and every 4 weeks thereafter. Electrocardiograms were performed at baseline, Days 1, 15, 22, and then every 8 weeks from Day 1.

[4] = GSK2256098 pharmacokinetics, dry blood spot, Day 15; type: in vivo; conditions: human, oral; for Cmax: read-out: Cmax, Geometric mean (%CV); for Tmax: read-out: tmax, Median (range)
Experimental: as §1

[5] = system: Merlin-negative (encoded by NF-2) mesothelioma cells; design: method as in doi:10.1016/S0959-8049(12)72185-8; conditions: preclinical studies; cited from earlier work
[6] = system: mesothelioma; design: method as in PMID 27733373; conditions: GSK2256098 monotherapy, phase I; cited from earlier work
[7] = human, in vivo
Experimental: as §2, §3

[8] = human, in vivo; remark: listed apart in the source
Experimental: Blood samples for pharmacokinetic analysis were collected prior to morning dosing of GSK2256098 on Day 15, and at 1, 1.5, 2, 4, 6, 8 h after the morning dose of GSK2256098. Trametinib was administered immediately after the 1.5-hour pharmacokinetic sample was collected.
For PK analysis of trametinib, blood samples were taken via an indwelling cannula (or by direct venepuncture), collected into a di-potassium ethylenediaminetetraacetic acid (K2-EDTA) tube and immediately placed on water ice. Blood samples stored on wet ice were centrifuged within 1 h of collection at approximately 1500 g for 10 min at 4 °C. Supernatant plasma was transferred to a 3.6 mL Nunc tube and stored at 20 °C before shipment. Samples were shipped frozen on dry ice at agreed timepoints throughout the study to GSK Pharmaceuticals, Upper Merion, PA, USA, for analysis.
Plasma samples were analysed for trametinib using the validated analytical method based on liquid-liquid extraction, followed by high-performance liquid chromatography mass spectrometry (HPLC-MS/MS) analysis using a TurboIonSpray interface and multiple reaction monitoring. The lower limit of quantification (LLQ) for trametinib was 0.25 ng/mL using a 50-mL aliquot of human plasma with a higher limit of quantification (HLQ) of 250 ng/mL. Blood samples were analysed for GSK2256098 using a validated analytical method based on acetonitrile extraction from dried blood spots on the Whatman FTA DBS card, followed by HPLC/MS/MS analysis using a TurboIonSpray interface and multiple reaction monitoring. The LLQ for GSK2256098 was 10 ng/mL using a 3-mm diameter.
GSK2256098 whole-blood and dry blood spot concentration-time data as well as trametinib plasma concentration-time data were analysed by standard noncompartmental methods using Phoenix WinNonlin version 6.3. Calculations of all Pharmacokinetic parameters were based on doses of GSK2256098 and trametinib administered and actual sampling times from the respective dosing.

[9] = design: method as in PMID 22805291; conditions: Trametinib 2.0 mg monotherapy (n = 13), plasma; cited from earlier work
[10] = human, oral, GSK2256098 250 mg (n = 10) with trametinib, whole blood, Day 15
[11] = human, oral, GSK2256098 500 mg (n = 21) with trametinib, whole blood, Day 15
[12] = GSK2256098 250 mg (n = 6) with trametinib
[13] = GSK2256098 500 mg (n = 10) with trametinib

Structure (SMILES): CONC(=O)c1ccccc1Nc1cc(Nc2cc(C)nn2C(C)C)ncc1Cl [GSK2256098]
- effect on deacetylation of trametinib by human carboxylesterases [1]: inhibits deacetylation of trametinib
- AUC ([2]; human, oral, GSK2256098 250 mg (n = 10) with trametinib, whole blood, Day 15, read-out: AUC(0–τ), Geometric mean (%CV)): 5470 ng·h/mL
- Cmax [2, 10]: 1400 ng/mL
- Tmax [2, 10]: 2 h
- Cmax [2, 11]: 2450 ng/mL
- Tmax [2, 11]: 2 h
- median time to Cmax (tmax) ([2]; post-dose, across dose groups, with trametinib): ~2 h
- exposure of GSK2256098 when co-administered with trametinib ([2]; versus previous monotherapy study): not altered
- relation of the most common serious AEs to GSK2256098 [3]: none of these were considered related to GSK2256098
- MTD in combination (high GSK2256098/low trametinib MTD, GSK2256098 part): 500 mg BID
- MTD in combination (low GSK2256098/high trametinib MTD, GSK2256098 part): 250 mg BID
- AUC ([4]; GSK2256098 250 mg (n = 6) with trametinib, read-out: AUC(0–τ), Geometric mean (%CV)): 4980 ng·h/mL
- Cmax [4, 12]: 1230 ng/mL
- Tmax [4, 12]: 2.8 h
- Cmax [4, 13]: 2830 ng/mL
- Tmax [4, 13]: 2 h
- activity in vitro in Merlin-negative versus Merlin-positive mesothelioma cells [5]: at least 20 times
- PFS of Merlin-negative versus Merlin-positive mesothelioma patients [6]: nearly twice

Structure (SMILES): CC(=O)Nc1cccc(-n2c(=O)n(C3CC3)c(=O)c3c(Nc4ccc(I)cc4F)n(C)c(=O)c(C)c32)c1 [trametinib]
- subjects with an SAE that could be attributed to trametinib [7]: 15%
- Trametinib exposure (Cmax and AUC) with GSK2256098 versus trametinib monotherapy [8]: 2- to 4 fold
- median time to Cmax (tmax) [8]: 1.5 to 2.5 h
- tmax of trametinib with GSK2256098 co-administration [8]: slightly delayed
- Cmax, Geometric mean (%CV) [9]: 22.2 (28) ng/mL
- tmax, Median (range) [9]: 1.75 (1.0–3.0) h
- MTD in combination (high GSK2256098/low trametinib MTD, trametinib part): 0.375 mg QD
- MTD in combination (low GSK2256098/high trametinib MTD, trametinib part): 0.5 mg QD
